From ChEMBL document CHEMBL1201862, “PubChem BioAssay data set” (2004)
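1) Cells in 96-well plates. 2) Compound, 48 h, 5 concentrations. 3) Linear interpolation between surrounding doses. 4) Unreached endpoint = highest concentration. GI50 marks 50% less growth.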 Active and inactive are the calls of the source. Cut-off read from the data, not from the text of the source: active = GI50 up to about 1.1 µM and inactive = higher.

Columns and labels:
Assay in all cases: inhibition of tumour cell growth, NCI panel, 48 h
[1] = system: HCC 2998
[2] = system: SK-MEL-2
[3] = system: HOP-92
[4] = system: SNB-19
[5] = system: HCT-15
[6] = system: SK-MEL-28
[7] = system: M14
[8] = system: U-251
[9] = system: OVCAR-5
[10] = system: ACHN
[11] = system: NCI-H522
[12] = system: HCT-116
[13] = system: Malme-3M
[14] = system: T47D
[15] = system: A549
[16] = system: K562
[17] = system: UACC-257
[18] = system: KM-20L2

Nc1nc(-c2cccc([N+](=O)[O-])c2)cc(-c2cc(-c3cccc([N+](=O)[O-])c3)nc(N)n2)n1
GI50 [1]: > 100 µM (inactive)
GI50 [2]: > 100 µM (inactive)
GI50 [3]: > 100 µM (inactive)
GI50 [4]: > 100 µM (inactive)
GI50 [5]: > 100 µM
GI50 [6]: > 100 µM (inactive)
GI50 [7]: > 100 µM (inactive)
GI50 [8]: > 100 µM (inactive)
GI50 [9]: > 100 µM (inactive)
GI50 [10]: > 100 µM (inactive)
GI50 [11]: > 100 µM (inactive)
GI50 [12]: > 100 µM (inactive)
GI50 [13]: > 100 µM (inactive)
GI50 [14]: > 100 µM (inactive)
GI50 [15]: > 100 µM (inactive)
GI50 [16]: > 100 µM (inactive)
GI50 [17]: > 100 µM (inactive)

NCCC(=O)NC(Cc1c[nH]cn1)C(=O)O (stereo unspecified)
GI50 [1]: > 100 µM (inactive)
GI50 [2]: > 100 µM (inactive)
GI50 [3]: > 100 µM (inactive)
GI50 [4]: > 100 µM (inactive)
GI50 [5]: > 100 µM
GI50 [6]: > 100 µM (inactive)
GI50 [7]: > 100 µM (inactive)
GI50 [8]: > 100 µM (inactive)
GI50 [9]: > 100 µM (inactive)
GI50 [10]: > 100 µM (inactive)
GI50 [11]: > 100 µM (inactive)
GI50 [12]: > 100 µM (inactive)
GI50 [13]: > 100 µM (inactive)
GI50 [14]: > 100 µM (inactive)
GI50 [15]: > 100 µM (inactive)
GI50 [16]: > 100 µM (inactive)
GI50 [17]: > 100 µM (inactive)

CC1CC[C@@]2(OC1)OC1C[C@H]3[C@@H]4CC=C5CC(OC6OC(CO)C(OC7OC(CO)C(O)C(OC8OCC(O)C(O)C8O)C7OC7OC(CO)C(OC8OC(C)C(OC9OC(C)C(O)C(O)C9O)C(O)C8O)C(O)C7O)C(O)C6O)CCC5(C)[C@H]4CCC3(C)C1[C@@H]2C (stereo partly specified)
GI50 [1]: 7.08 µM (inactive)
GI50 [2]: 6.71 µM (inactive)
GI50 [3]: 7.46 µM (inactive)
GI50 [4]: 5.61 µM (inactive)
GI50 [5]: 9.64 µM
GI50 [6]: 11.2 µM (inactive)
GI50 [7]: 4.28 µM (inactive)
GI50 [8]: 9.04 µM (inactive)
GI50 [9]: 7.46 µM (inactive)
GI50 [10]: 2.5 µM (inactive)
GI50 [11]: 8.87 µM (inactive)
GI50 [12]: 8.47 µM (inactive)
GI50 [13]: 10.6 µM (inactive)
GI50 [14]: 9.29 µM (inactive)
GI50 [15]: 7.48 µM (inactive)
GI50 [16]: 8.05 µM (inactive)
GI50 [17]: 9.35 µM (inactive)

Cc1ccccc1NC(=O)C1C(=O)N(c2ccccc2C)C(=O)/C1=N\NC(N)=S (stereo unspecified)
GI50 [18]: > 100 µM (inactive)
GI50 [2]: > 100 µM (inactive)
GI50 [3]: > 100 µM (inactive)
GI50 [4]: > 100 µM (inactive)
GI50 [6]: > 100 µM (inactive)
GI50 [7]: > 100 µM (inactive)
GI50 [8]: > 100 µM (inactive)
GI50 [10]: > 100 µM (inactive)
GI50 [11]: > 100 µM (inactive)
GI50 [12]: > 100 µM (inactive)
GI50 [13]: > 100 µM (inactive)
GI50 [15]: > 100 µM (inactive)
GI50 [16]: > 100 µM (inactive)
GI50 [17]: > 100 µM (inactive)

S=c1sscc1N1CCSc2ssc(=S)c21
GI50 [1]: > 100 µM (inactive)
GI50 [2]: 78.2 µM (inactive)
GI50 [3]: 8.36 µM (inactive)
GI50 [4]: 18.8 µM (inactive)
GI50 [5]: 47.5 µM
GI50 [6]: > 100 µM (inactive)
GI50 [7]: > 100 µM (inactive)
GI50 [8]: 13.8 µM (inactive)
GI50 [9]: > 100 µM (inactive)
GI50 [10]: 30.5 µM (inactive)
GI50 [11]: 19.8 µM (inactive)
GI50 [12]: 87.1 µM (inactive)
GI50 [13]: > 100 µM (inactive)
GI50 [14]: 20.8 µM (inactive)
GI50 [15]: 48.6 µM (inactive)
GI50 [16]: > 100 µM (inactive)
GI50 [17]: > 100 µM (inactive)

O=C1C=CC(=O)c2c1ccc1c3ccccc3n(CCCCCn3c4ccccc4c4ccc5c(c43)C(=O)C=CC5=O)c21
GI50 [1]: 33 µM (inactive)
GI50 [2]: 23.3 µM (inactive)
GI50 [3]: 16.5 µM (inactive)
GI50 [4]: 41.2 µM (inactive)
GI50 [5]: 17.2 µM
GI50 [6]: 16.4 µM (inactive)
GI50 [7]: 20.1 µM (inactive)
GI50 [8]: 20 µM (inactive)
GI50 [9]: > 49.5 µM (inactive)
GI50 [10]: 15.3 µM (inactive)
GI50 [11]: 2.02 µM (inactive)
GI50 [12]: 12.8 µM (inactive)
GI50 [13]: 16.7 µM (inactive)
GI50 [14]: 4.81 µM (inactive)
GI50 [15]: > 100 µM (inactive)
GI50 [16]: 2.06 µM (inactive)
GI50 [17]: 16.3 µM (inactive)

Nc1c(-c2nc3ccccc3o2)sc(=S)n1-c1ccc(Cl)cc1
GI50 [1]: 1.27 µM (inactive)
GI50 [2]: 11.2 µM (inactive)
GI50 [3]: 21.7 µM (inactive)
GI50 [4]: 13.7 µM (inactive)
GI50 [5]: 26.1 µM
GI50 [6]: 13.9 µM (inactive)
GI50 [7]: 15.4 µM (inactive)
GI50 [8]: 15.6 µM (inactive)
GI50 [9]: 46.1 µM (inactive)
GI50 [10]: 9.1 µM (inactive)
GI50 [11]: 14 µM (inactive)
GI50 [12]: 12.3 µM (inactive)
GI50 [13]: 19.1 µM (inactive)
GI50 [14]: 2.58 µM (inactive)
GI50 [15]: 13.2 µM (inactive)
GI50 [16]: 0.474 µM (active)
GI50 [17]: 18 µM (inactive)

CCCCc1ccc(Nc2cc(=O)n(C)c(=O)[nH]2)cc1
GI50 [1]: > 100 µM (inactive)
GI50 [2]: > 100 µM (inactive)
GI50 [3]: 26.7 µM (inactive)
GI50 [4]: 52.1 µM (inactive)
GI50 [5]: 93.1 µM
GI50 [6]: > 100 µM (inactive)
GI50 [7]: > 100 µM (inactive)
GI50 [8]: 54.3 µM (inactive)
GI50 [9]: > 100 µM (inactive)
GI50 [10]: > 100 µM (inactive)
GI50 [11]: > 100 µM (inactive)
GI50 [12]: 72.6 µM (inactive)
GI50 [13]: > 100 µM (inactive)
GI50 [14]: > 100 µM (inactive)
GI50 [15]: > 100 µM (inactive)
GI50 [16]: 85.7 µM (inactive)
GI50 [17]: > 100 µM (inactive)

O=C1C(=C(C(F)(F)Cl)C(F)(F)Cl)C2CCC1C2 (stereo unspecified)
GI50 [1]: 5.31 µM (inactive)
GI50 [2]: 1.78 µM (inactive)
GI50 [3]: 2.58 µM (inactive)
GI50 [4]: > 10 µM (inactive)
GI50 [5]: 1.98 µM
GI50 [6]: 1.93 µM (inactive)
GI50 [7]: 1.16 µM (inactive)
GI50 [8]: 5.27 µM (inactive)
GI50 [9]: 2.96 µM (inactive)
GI50 [10]: 1.84 µM (inactive)
GI50 [11]: 0.225 µM (active)
GI50 [12]: 1.9 µM (inactive)
GI50 [13]: 1.55 µM (inactive)
GI50 [14]: 1.38 µM (inactive)
GI50 [15]: 2.2 µM (inactive)
GI50 [16]: 0.63 µM (active)
GI50 [17]: 1.9 µM (inactive)

C=C1C(=O)OC2CC1C(O)C/C(C)=C/CC/C(C)=C/C(O)CC2C (stereo unspecified)
GI50 [1]: 1.83 µM (inactive)
GI50 [2]: 3.4 µM (inactive)
GI50 [3]: 1.26 µM (inactive)
GI50 [4]: 5.47 µM (inactive)
GI50 [5]: 1.73 µM
GI50 [6]: 4.9 µM (inactive)
GI50 [7]: 2.51 µM (inactive)
GI50 [8]: 4.68 µM (inactive)
GI50 [9]: 4.97 µM (inactive)
GI50 [10]: 1.65 µM (inactive)
GI50 [11]: 0.216 µM (active)
GI50 [12]: 1.45 µM (inactive)
GI50 [13]: 2.37 µM (inactive)
GI50 [14]: 0.824 µM (active)
GI50 [15]: 12.4 µM (inactive)
GI50 [16]: 1 µM (active)
GI50 [17]: 2.4 µM (inactive)

Cc1cccc(C)c1/N=N/c1ccc(O)c(CN(C)C)c1
GI50 [1]: 19.9 µM (inactive)
GI50 [2]: 25.2 µM (inactive)
GI50 [3]: 3.21 µM (inactive)
GI50 [4]: > 100 µM (inactive)
GI50 [5]: > 100 µM
GI50 [6]: 20.7 µM (inactive)
GI50 [7]: 24.7 µM (inactive)
GI50 [8]: > 100 µM (inactive)
GI50 [9]: 28.3 µM (inactive)
GI50 [10]: 36.2 µM (inactive)
GI50 [11]: 42.6 µM (inactive)
GI50 [12]: 68.7 µM (inactive)
GI50 [13]: 20.5 µM (inactive)
GI50 [14]: 23.6 µM (inactive)
GI50 [15]: 65.9 µM (inactive)
GI50 [16]: 28.6 µM (inactive)
GI50 [17]: 32.7 µM (inactive)

O=C1CC(c2ccccc2Cl)C2(C(=O)NC(=O)NC2=O)C(c2ccccc2Cl)C1 (stereo unspecified)
GI50 [1]: 49.2 µM (inactive)
GI50 [2]: 81.1 µM (inactive)
GI50 [3]: > 100 µM (inactive)
GI50 [4]: > 100 µM (inactive)
GI50 [5]: > 100 µM
GI50 [6]: > 100 µM (inactive)
GI50 [7]: > 100 µM (inactive)
GI50 [8]: > 100 µM (inactive)
GI50 [9]: > 100 µM (inactive)
GI50 [10]: > 100 µM (inactive)
GI50 [11]: > 100 µM (inactive)
GI50 [12]: > 100 µM (inactive)
GI50 [13]: 5.05 µM (inactive)
GI50 [14]: 18.8 µM (inactive)
GI50 [15]: 85.3 µM (inactive)
GI50 [16]: > 100 µM (inactive)
GI50 [17]: > 100 µM (inactive)
